Measurements published in patent publication US20260174750A1 (Merck Sharp & Dohme LLC, priority 2022, published 2026).

Target: T1, human DGAT2 (Homo sapiens, UniProt Q96PD7)
T1 sequence (Q96PD7 1-388): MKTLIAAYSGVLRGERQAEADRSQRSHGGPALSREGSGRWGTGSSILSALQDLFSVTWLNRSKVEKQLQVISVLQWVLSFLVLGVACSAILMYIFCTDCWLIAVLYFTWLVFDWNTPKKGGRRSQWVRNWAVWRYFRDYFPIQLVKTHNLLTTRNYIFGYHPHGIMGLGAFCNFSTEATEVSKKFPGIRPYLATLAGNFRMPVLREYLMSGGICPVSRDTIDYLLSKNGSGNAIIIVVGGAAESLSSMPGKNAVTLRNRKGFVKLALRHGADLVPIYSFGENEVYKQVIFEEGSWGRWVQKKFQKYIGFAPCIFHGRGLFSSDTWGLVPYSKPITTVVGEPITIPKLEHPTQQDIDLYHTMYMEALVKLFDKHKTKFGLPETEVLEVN
Assay: biochemical
Method: Cell pellets were suspended in buffer containing 10 mM Tris-HCl pH 7.5, 1 mM EDTA, 250 mM sucrose and Complete Protease Inhibitor Cocktail (Sigma Aldrich), and sonicated on ice. Cell debris were removed by centrifugation at 2000×g for 15 minutes. Membrane fractions were isolated by ultracentrifugation (100,000×g), resuspended in the same buffer, and frozen (−80° C.) for later use. The protein concentration was determined with the Pierce™ BCA Protein Assay Kit (Thermo Fisher Scientific).
LC/MS/MS analyses were performed using Thermal Fisher's LX4-TSQ Vantage system. This system consists of an Agilent binary high-performance liquid chromatography (HPLC) pump and a TSQ Vantage triple quadrupole MS/MS instrument. For each sample, 2 μL samples from the top organic layer of in-plate liquid-liquid extraction were injected onto a Thermo Betabasic C4 column (2.1 mm×20 mm, 5 μm particle size). The samples were then eluted using the following conditions; mobile phase: Isopropanol:acetonitrile/10 mM ammonium formate=50/35/15 (v/v/v), flow rate: 0.8 mL/min, temperature: 25° C. Data was acquired in positive mode using a heated electrospray ionization (HESI) interface. […] The peak area was integrated by Xcalibur Quan software. The ratio between the ^13C18 triolein generated in the reaction and spiked in internal standard ^13C21-triolein was used to generate percentage inhibition and IC50 values. […] DGAT2 activity was determined by measuring the amount of enzymatic product ^13C18-triolein (^13C-1,2,3-Tri(cis-9-octadecenoyl)glycerol) using the membrane prep mentioned above. The assay was carried out in ABgene 384-well assay plates in a final volume of 25 μL at rt.

| Structure (SMILES) | IC50 |
| --- | --- |
| Cc1c(Oc2ncc(F)cc2OCC2(F)CC2)ccc2nc(C(=O)NC3(C)CCS(=O)(=O)CC3)nn12 [Example 16, 6-[[5-fluoro-3-[(1-fluorocyclopropyl)methoxy]-2-pyridyl]oxy]-5-methyl-N-(4-methyl-1,1-dioxo-thian-4-yl)-[1,2,4]triazolo[1,5-a]pyridine-2-carboxamide] | 25 nM |
| Cc1c(Oc2ncc(F)cc2OCC(C)(F)F)ccc2nc(C(=O)NC3(C)CCS(=O)(=O)CC3)nn12 [Example 19, 6-[[3-(2,2-difluoropropoxy)-5-fluoro-2-pyridyl]oxy]-5-methyl-N-(4-methyl-1,1-dioxo-thian-4-yl)-[1,2,4]triazolo[1,5-a]pyridine-2-carboxamide] | 210 nM |
| Cc1cc2nc(C(=O)NC3(C)CCS(=O)(=O)CC3)nn2c(C)c1Oc1ncc(Cl)cc1OCC(F)(F)F [Example 24, 6-((5-Chloro-3-(2,2,2-trifluoroethoxy)pyridin-2-yl)oxy)-5,7-dimethyl-N-(4-methyl-1,1-dioxidotetrahydro-2H-thiopyran-4-yl)-[1,2,4]triazolo[1,5-a]pyridine-2-carboxamide] | 181 nM |
| CCOc1cccnc1Oc1ccc2nc(C(=O)NC3(C)CCS(=O)(=O)CC3)nn2c1 [Example 2, 6-[(3-ethoxy-2-pyridyl)oxy]-N-(4-methyl-1,1-dioxo-thian-4-yl)-[1,2,4]triazolo[1,5-a]pyridine-2-carboxamide] | 17 nM |
| Cc1c(Oc2ncc(Cl)cc2OCC2(F)CC2)ccc2nc(C(=O)NC3(C)CCS(=O)(=O)CC3)nn12 [Example 15, 6-[[5-chloro-3-[(1-fluorocyclopropyl)methoxy]-2-pyridyl]oxy]-5-methyl-N-(4-methyl-1,1-dioxo-thian-4-yl)-[1,2,4]triazolo[1,5-a]pyridine-2-carboxamide] | 11 nM |
| Cc1c(Oc2ncc(Cl)cc2OCC(F)(F)F)cc(F)c2nc(C(=O)NC3(C)CS(=O)(=O)C3)nn12 [Example 29, 6-[[5-chloro-3-(2,2,2-trifluoroethoxy)-2-pyridyl]oxy]-8-fluoro-5-methyl-N-(3-methyl-1,1-dioxo-thietan-3-yl)-[1,2,4]triazolo[1,5-a]pyridine-2-carboxamide] | 383 nM |
| CCOc1cccnc1Oc1ccc2nc(C(=O)NC3(C)CS(=O)(=O)C3)nn2c1 [Example 3, 6-[(3-ethoxy-2-pyridyl)oxy]-N-(3-methyl-1,1-dioxo-thietan-3-yl)-[1,2,4]triazolo[1,5-a]pyridine-2-carboxamide] | 103 nM |
| O=C(N[C@H]1CCCC(F)(F)[C@@H]1O)c1nc2ccc(Oc3ncc(Cl)cc3OCC(F)(F)F)cn2n1 [Example 11] | 60 nM |
| Cc1cc2nc(C(=O)N[C@H]3CCCC(F)(F)[C@@H]3O)nn2cc1Oc1ncc(Cl)cc1OCC(F)(F)F [Example 23, 6-[[5-chloro-3-(2,2,2-trifluoroethoxy)-2-pyridyl]oxy]-N-[(1S,2R)-3,3-difluoro-2-hydroxy-cyclohexyl]-7-methyl-[1,2,4]triazolo[1,5-a]pyridine-2-carboxamide] | 91 nM |
| CC1(NC(=O)c2nc3ccc(Oc4ncccc4OCC(F)(F)F)cn3n2)CC(F)(F)C1 [Example 9] | 8250 nM |
| Cc1c(OCc2ncc(Cl)cc2OCC(F)F)ccc2nc(C(=O)NC3(C)CCS(=O)(=O)CC3)nn12 [Example 36, 6-((5-chloro-3-(2,2-difluoroethoxy)pyridin-2-yl)methoxy)-5-methyl-N-(4-methyl-1,1-dioxidotetrahydro-2H-thiopyran-4-yl)-[1,2,4]triazolo[1,5-a]pyridine-2-carboxamide] | 336 nM |
| CCOc1cccnc1Oc1ccc2nc(C(=O)N[C@@H]3CCOC3)nn2c1 [Example 5, 6-[(3-ethoxy-2-pyridyl)oxy]-N-[(3R)-tetrahydrofuran-3-yl]-[1,2,4]triazolo[1,5-a]pyridine-2-carboxamide] | 2440 nM |
| Cc1c(Oc2ncc(Cl)cc2OCC(C)(F)F)cc(F)c2nc(C(=O)NC3(C)CCS(=O)(=O)CC3)nn12 [Example 31, 6-[[5-chloro-3-(2,2-difluoropropoxy)-2-pyridyl]oxy]-8-fluoro-5-methyl-N-(4-methyl-1,1-dioxo-thian-4-yl)-[1,2,4]triazolo[1,5-a]pyridine-2-carboxamide] | 30 nM |
| Cc1c(Oc2ncc(Cl)cc2OCC(C)(F)F)ccc2nc(C(=O)NC3(C)CCS(=O)(=O)CC3)nn12 [Example 18] | 50 nM |
| CC1(NC(=O)c2nc3ccc(Oc4ncccc4OCC(F)(F)F)cn3n2)CCS(=O)(=O)CC1 [Example 7, N-(4-methyl-1,1-dioxo-thian-4-yl)-6-[[3-(2,2,2-trifluoroethoxy)-2-pyridyl]oxy]-[1,2,4]triazolo[1,5-a]pyridine-2-carboxamide] | 126 nM |
| CC1(NC(=O)c2nc3ccc(Oc4ncc(Cl)cc4OCC(F)(F)F)cn3n2)CS(=O)(=O)C1 [Example 10, 6-[[5-chloro-3-(2,2,2-trifluoroethoxy)-2-pyridyl]oxy]-N-(3-methyl-1,1-dioxo-thietan-3-yl)-[1,2,4]triazolo[1,5-a]pyridine-2-carboxamide] | 151 nM |
| Cc1c(Oc2ncc(F)cc2OCC(C)(F)F)cc(F)c2nc(C(=O)NC3(C)CCS(=O)(=O)CC3)nn12 [Example 32, 6-[[3-(2,2-difluoropropoxy)-5-fluoro-2-pyridyl]oxy]-8-fluoro-5-methyl-N-(4-methyl-1,1-dioxo-thian-4-yl)-[1,2,4]triazolo[1,5-a]pyridine-2-carboxamide] | 61 nM |
| Cc1c(Oc2ncc(Cl)cc2OCC(F)(F)F)ccc2nc(C(=O)N[C@H]3CCCC(F)(F)[C@@H]3O)nn12 [Example 21, 6-[[5-chloro-3-(2,2,2-trifluoroethoxy)-2-pyridyl]oxy]-N-[(1S,2R)-3,3-difluoro-2-hydroxy-cyclohexyl]-5-methyl-[1,2,4]triazolo[1,5-a]pyridine-2-carboxamide] | 581 nM |
| Cc1c(Oc2ncc(F)cc2OCC(F)(F)F)cc(F)c2nc(C(=O)NC3(C)CCS(=O)(=O)CC3)nn12 [Example 30, 8-fluoro-6-[[5-fluoro-3-(2,2,2-trifluoroethoxy)-2-pyridyl]oxy]-5-methyl-N-(4-methyl-1,1-dioxo-thian-4-yl)-[1,2,4]triazolo[1,5-a]pyridine-2-carboxamide] | 19 nM |
| CCOc1cccnc1Oc1ccc2nc(C(=O)N[C@H]3CCOC3)nn2c1 [Example 4, 6-[(3-ethoxy-2-pyridyl)oxy]-N-[(3S)-tetrahydrofuran-3-yl]-[1,2,4]triazolo[1,5-a]pyridine-2-carboxamide] | 384 nM |
| Cc1c(Oc2ncc(Cl)cc2OCC(F)(F)F)cc(F)c2nc(C(=O)NC3(C)CCS(=O)(=O)CC3)nn12 [Example 28, 6-[[5-Chloro-3-(2,2,2-trifluoroethoxy)-2-pyridyl]oxy]-8-fluoro-5-methyl-N-(4-methyl-1,1-dioxo-thian-4-yl)-[1,2,4]triazolo[1,5-a]pyridine-2-carboxamide] | 12 nM |
| Cc1c(OCc2ncc(F)cc2OCC(F)(F)F)ccc2nc(C(=O)NC3(C)CCS(=O)(=O)CC3)nn12 [Example 35, 6-((5-Fluoro-3-(2,2,2-trifluoroethoxy)pyridin-2-yl)methoxy)-5-methyl-N-(4-methyl-1,1-dioxidotetrahydro-2H-thiopyran-4-yl)-[1,2,4]triazolo[1,5-a]pyridine-2-carboxamide] | 1680 nM |
| Cc1cc2nc(C(=O)NC3(C)CCS(=O)(=O)CC3)nn2c(C)c1Oc1nccnc1OCC(F)(F)F [Example 25, 5,7-dimethyl-N-(4-methyl-1,1-dioxo-thian-4-yl)-6-[3-(2,2,2-trifluoroethoxy)pyrazin-2-yl]oxy-[1,2,4]triazolo[1,5-a]pyridine-2-carboxamide] | 91 nM |
| CC1(NC(=O)c2nc3ccc(Oc4ncccc4OCC(F)(F)F)cn3n2)CCC(F)(F)CC1 [Example 8, N-(4,4-difluoro-1-methyl-cyclohexyl)-6-[[3-(2,2,2-trifluoroethoxy)-2-pyridyl]oxy]-[1,2,4]triazolo[1,5-a]pyridine-2-carboxamide] | 177 nM |
| Cc1c(Oc2nccnc2OCC(F)F)cc(F)c2nc(C(=O)NC3(C)CCS(=O)(=O)CC3)nn12 [Example 34, 6-[3-(2,2-difluoroethoxy)pyrazin-2-yl]oxy-8-fluoro-5-methyl-N-(4-methyl-1,1-dioxo-thian-4-yl)-[1,2,4]triazolo[1,5-a]pyridine-2-carboxamide] | 31 nM |
| CCOc1cccnc1Oc1ccc2nc(C(=O)N[C@H]3CC[C@@](OC)(C(F)(F)F)CC3)nn2c1 [Example 6, 6-[(3-ethoxy-2-pyridyl)oxy]-N-[4-methoxy-4-(trifluoromethyl)cyclohexyl]-[1,2,4]triazolo[1,5-a]pyridine-2-carboxamide] | 149 nM |
| CC1(NC(=O)c2nc3c(F)cc(Oc4ncc(Cl)cc4OCC(F)(F)F)cn3n2)CCS(=O)(=O)CC1 [Example 26, 6-((5-Chloro-3-(2,2,2-trifluoroethoxy)pyridin-2-yl)oxy)-8-fluoro-N-(4-methyl-1,1-dioxidotetrahydro-2H-thiopyran-4-yl)-[1,2,4]triazolo[1,5-a]pyridine-2-carboxamide] | 9.5 nM |
